Measurements taken from ChEMBL document CHEMBL3832761, “MMV Pathogen Box Bioactivity Data” (2017).

Tests used:
Plasmodium falciparum [1] = experiment: Antimalarial activity: Asexual Blood Stage Plasmodium falciparum 3D7 IC50 (uM); format: functional, organism-based
Plasmodium falciparum [2] = experiment: Antimalarial activity: Asexual Blood Stage Plasmodium falciparum Dd2 IC50 (uM); format: functional, organism-based
Plasmodium falciparum [3] = experiment: Antimalarial activity: Asexual Blood Stage Plasmodium falciparum W2 IC50 (uM); format: functional, organism-based
Plasmodium berghei [4] = experiment: Antimalarial activity: Liver Stage Plasmodium berghei sporozoite Luciferase assay: inhibition at 10 uM (%); format: functional
Plasmodium berghei [5] = experiment: Antimalarial activity: Liver Stage Plasmodium berghei sporozoite Luciferase assay IC50 (uM); format: functional, organism-based
Plasmodium falciparum [6] = experiment: Antimalarial activity: Gametocytes Plasmodium falciparum NF54 Gametocytes Stage V: inhibition at 10 uM (%); format: functional
HepG2 [7] = experiment: Cytotoxicity data HepG2 CC20 (uM); format: functional
HepG2 [8] = experiment: HepG2 CC50 (uM) Cytotoxicity; format: functional; settings: Homo sapiens

Row | SMILES | IC50 (Plasmodium falciparum [1]) [µM] | IC50 (Plasmodium falciparum [2]) [µM] | IC50 (Plasmodium falciparum [3]) [µM] | Inhibition (Plasmodium berghei [4]) [%] | IC50 (Plasmodium berghei [5]) [µM] | Inhibition (Plasmodium falciparum [6]) [%] | CC20 (HepG2 [7]) [µM] | CC50 (HepG2 [8]) [µM]
1 | Cc1ccc(S(=O)(=O)N2CCN(C(=O)c3cc(-c4ccccc4)n[nH]3)CC2)cc1 | 1.04 | 1.73 | 0.4 | 92 | 0.63 | 17 | >80 | > 10
2 | CC1CC1C(=O)NC1CCN(CC2(c3ccccc3)CCCCC2)CC1 (centres undefined) | 0.58 | 0.92 | 0.31 | 100 | 2.25 | 24 | >80 | > 10
3 | Cc1cccc(NC(=O)c2cc(S(=O)(=O)N(C)c3ccc(F)cc3)ccc2Cl)n1 | 1.58 | > 2 | 1.07 | 86 | 6.77 | 3 | 26.4 | > 10
4 | Nc1nccc2ccc(Oc3ccncc3)cc12 | 0.23 | 0.74 | 0.42 | 52 | > 10 | 43 | >80 | > 10
5 | Clc1cccc(C(c2ccc(CN3CCNCC3)cc2)n2ccnc2)c1 (centres undefined) | 1.63 | 1.53 | 1.36 | 83 | > 10 | 36 | 15.2 | > 10
6 | CCOc1ccc(-c2nc(NC(=O)CS(=O)(=O)c3ccccc3)sc2C)cc1 | 0.66 | 1.8 | 1.97 | 59 | > 10 | 17 | 20 | > 10
7 | NCC(=O)N1CCn2c(nc(-c3ccccc3)c2Nc2ccc3c(c2)OCO3)C1 | 0.64 | 0.89 | 0.54 | 100 | 3.78 | 56 | >80 | > 10
8 | Cc1ccc(Oc2ccc(NC(=O)CNc3ccccc3N3CCCC3=O)cc2)cc1 | 0.48 | 0.6 | 0.64 | 89 | 9.1 | 0 | 17.5 | 9.8
9 | O=C1Nc2ccc(Br)cc2C12NCCc1c2[nH]c2ccccc12 (centres undefined) | 0.51 | 0.41 | 0.62 | 57 | > 10 | 38 | 19.9 | > 10
10 | Cc1cccc(C(=O)Nc2ccnc(N(C)C3CCN(CC(C)C)CC3)c2)c1 | 2.1 | 5.18 | 9.25 | 66 | > 10 | 10 | 13.7 | > 10
11 | CN(C)CCNC(=O)N1CCCN(c2ncnc3cc(-c4ccccc4)sc23)CC1 | 1.58 | 2.91 | 3.85 | 73 | 1.97 | 5 | 6.21 | > 10
12 | Cc1cc(C)n2nc(C(=O)Nc3cc(C(F)(F)F)ccc3N3CCOCC3)nc2n1 | 0.22 | 0.22 | 0.07 | 88 | 1.21 | 4 | >80 | > 10
13 | NS(=O)(=O)c1cncc(-c2ccc3nccc(-c4cn[nH]c4)c3n2)c1 | 0.6 | 0.63 | 0.73 | 96 | 2.17 | 70 | 0.49 | 
14 | CCOc1ccccc1NC(C)C(=O)Nc1cc(C(F)(F)F)ccc1N1CCOCC1 (centres undefined) | 0.42 | 0.61 | 0.79 | 56 | > 10 | 39 | 29.8 | > 10
15 | O=C1N(Cc2cc3ccccc3s2)CC2CN(Cc3ccccc3)CCN12 (centres undefined) | 1.16 | 1.26 | 1.33 | 100 | 0.2 | 53 | 26.4 | > 10
16 | O=C(Nc1cccc(Cl)c1)c1cnc(N2CCN(c3ccncc3)CC2)c(Cl)c1 | 0.83 | 1.33 | 1.55 | 99 | 2.35 | 51 | 2.68 | > 10
17 | Cc1cc(C(=O)Nc2ccc(-c3ccccc3)cc2)no1 | 0.82 | 1.41 | 0.54 | 97 | > 10 | 24 | >80 | > 10
18 | CC(C)C(NC(=O)Cc1cccc2ccccc12)C(=O)Nc1cccc(C#N)c1 (centres undefined) | 0.96 | 3.1 | 1.14 | 76 | 9.15 | 5 | 14 | > 10

Row | SMILES | IC50 (Plasmodium falciparum [1]) [µM] | IC50 (Plasmodium falciparum [2]) [µM] | IC50 (Plasmodium falciparum [3]) [µM] | Inhibition (Plasmodium berghei [4]) [%] | IC50 (Plasmodium berghei [5]) [µM] | Inhibition (Plasmodium falciparum [6]) [%] | CC20 (HepG2 [7]) [µM] | CC50 (HepG2 [8]) [µM]
19 | FC(F)(F)c1cccc(-c2nc3c(NCc4ccncc4)nccc3[nH]2)c1 | 0.51 | 0.78 | 1.04 | 62 | > 10 | 11 | 14.6 | > 10
20 | O=C(NC1CC1)c1ccc(N2CCC(Cc3ccccc3)CC2)nc1 | 1.33 | 1.67 | 0.82 | 100 | 1.41 | 28 | >80 | > 10
21 | O=C(Nc1ccc(N2CCNCC2)nc1)c1oc(-c2ccccc2)nc1C(F)(F)F | 1.22 | 1.64 | 3 | 78 | 2.55 | 44 | 13.4 | > 10
22 | COc1cccc(-c2cc3c(Nc4cccnc4)nccc3[nH]2)c1 | 1.28 | 2.49 | 2.53 | 77 | > 10 | 6 | 2.29 | > 10
23 | Cc1ccc(NC(=O)c2cc(S(=O)(=O)NC(C)(C)C)ccc2C)nc1 | 0.93 | 2.51 | 1.18 | 82 | 7.35 | 2 | >80 | > 7.5
24 | Cc1nc(-c2cccc(NCc3ccccc3)c2)[nH]c1C | 1.94 | 5.03 | 2.59 | 100 | 4.59 | 16 | 27.7 | > 10
25 | CC(C)(CN)c1nc(-c2ccc(Cl)c(O)c2)c(-c2ccnc(N)n2)[nH]1 | 0.41 | 0.19 | 1.05 | 100 | 0.32 | 9 | 5.77 | > 10
26 | O=C(NC1CCN(c2ccnc3ccccc23)C1)c1cccc(C(F)(F)F)c1 (centres undefined) | 0.71 | 0.78 | 2.06 | 99 | 6.54 | 1 | 5.82 | > 10
27 | Cc1c[nH]c(CCNC(=O)c2cc(-c3ccc(Cl)cc3)cs2)n1 | 0.81 | 2.02 | 2.86 | 85 | 8.57 | 15 | 6.9 | > 10
28 | C[C@]1(O)C[C@@H](c2nc(-c3ccc4ccc(-c5ccccc5)nc4c3)c3c(N)nccn32)C1 [LINSITINIB] | > 2 | > 2 |  | 98 | 0.36 | 16 | 4.67 | > 10
29 | Cc1ccc(S(=O)(=O)n2cc(-c3ccnc(N)c3)c3cc(Br)cnc32)cc1 | 0.63 | 1.47 | 1.3 | 99 | > 6 | 17 | 5.28 | > 6
30 | CN1CCN(c2nccc3nc(-c4ccc(F)c(F)c4)[nH]c23)CC1 | 1.13 | 1.71 | 2.11 | 56 | > 10 | 32 | 10.3 | > 10
31 | Cc1nnc(NC(=O)c2cn(-c3ccccc3)nc2-c2ccccc2C)o1 | 0.71 | 1.5 | 0.68 | 100 | 0.17 | 16 | 0.92 | > 10
32 | c1csc(-c2cnc3sc(NCC4CCOCC4)nn23)c1 | 1.37 | 1.11 |  | 58 | > 10 | 18 | 30 | > 10
33 | COc1cncc(-c2cncc(N3CCN(c4ccncc4)CC3)n2)c1 | 0.1 | 0.15 | 0.18 | 64 | > 7.5 | 12 | 4.65 | > 10
34 | OCCc1ccc(Nc2nccc(-c3nnc4ccccn34)n2)cc1 | 1.08 | 1.63 | 0.69 | 99 | 1.47 | 11 | 1.67 | 8.1
35 | CNC(=O)C1Cc2c([nH]c3cc(Cl)ccc23)C2(CCN(CCc3ccccc3)CC2)N1 (centres undefined) | 0.86 | 1.95 | 4.55 | 99 | 4.51 | 33 | 10 | > 10
36 | Nc1ccc(C(=O)Nc2ccc(-c3nc4ccccc4o3)cc2)cc1 | 1.55 | > 2 |  | 89 | > 10 | 0 | 18.2 | > 10
